From US20190071670A1, “Methods Of Treatment For Alpha-1 Antitrypsin Deficiency” (Arrowhead Pharmaceuticals, Inc., priority 2016, published 2019)
Where two headings read alike, the source gives them in different places.

System: AAT
Details: cynomolgus macaque
Protocol: MLP delivery polymer and Duplex Pair SEQ ID NO: 5/6 (AAT RNAi agent) were made and combined in a pharmaceutically acceptable buffer. On day 1, cynomolgus macaque (Macaca fascicularis) primates (male and female, 3 to 9 kg) were co-injected with MLP delivery polymer and Duplex Pair SEQ ID NO: 5/6 at different dose combinations. The dose combinations injected were: 2.0 mg/kg MLP delivery polymer+4.0 AAT RNAi agent (n=3), 3 mg/kg MLP delivery polymer+1.5 mg/kg AAT RNAi agent (n=2), 3.0 mg/kg MLP delivery polymer+3.0 mg/kg AAT RNAi agent (n=3), 3.0 mg/kg MLP delivery polymer+6.0 mg/kg AAT RNAi agent (n=2), 6.0 mg/kg MLP delivery polymer+12 mg/kg AAT RNAi trigger (n=3) ([…] conversion factor used to determine RNAi agent concentration) and 12 mg/kg MLP delivery polymer+6.0 mg/kg AAT RNAi agent (n=12). For each injection the MLP delivery polymer+AAT RNAi agent (2 ml/kg) was injected into the saphenous vein using a 22 to 25 gauge intravenous catheter. At the indicated time points, blood samples were drawn and analyzed for AAT and toxicity markers. Blood was collected from the femoral vein and primates were fasted overnight before all blood collections. Blood tests for blood urea nitrogen (BUN), alanine transaminase (ALT), aspartate aminotransferase (AST), and creatinine were performed on an automated chemistry analyzer at Meriter laboratories or BASi. AAT levels were determined on a Cobas Integra 400 (Roche Diagnostics) according to the manufacturer's recommendations.
Cynomolgus macaque primates were given five doses of AAT RNAi trigger+MLP delivery polymer at six week intervals. Each dose contained MLP delivery polymer and Duplex Pair SEQ ID NO: 5/6 (AAT RNAi agent) at a 1:2 weight to weight ratio of the MLP to RNAi agent. The first injection was on day 1. The dose combinations injected were: 2.0 mg/kg MLP delivery polymer+4.0 AAT RNAi agent (n=2) and 3 mg/kg MLP delivery polymer+6 mg/kg AAT RNAi agent (n=2). Blood was collected at intervals throughout the study and AAT levels were measured from the serum as described.

Question: For “Duplex Pair SEQ ID NO: 5/6: double-stranded AAT RNAi agent: modified antisense strand SEQ ID NO: 5 annealed to Chol-TEG sense strand SEQ ID NO: 6 (antisense TGGAACUUGGUGAUGAUAUTT; sense UAUAUAUCAUCACCAAGUUCCAT; Chol-TEG on sense strand; chemical modifications; antisense strand of dsRNA; modified_base 7 /mod_base = “2′-3′ seco corresponding nucleotide”; modified_base 2,4,6,8,10,12,14,16,18 /mod_base = “2′-deoxy-2′-fluoro corresponding nucleoside”; modified_base 3,5,9,11,13,15,17,19 /mod_base = “2′-O-methyl corresponding nucleoside”; modified_base 21 /mod_base = “5′-phosphorothioate corresponding nucleotide”; sense strand of dsRNA; modified_base 2 /mod_base = “2′-hydroxy corresponding nucleoside”; modified_base 4,6,8,10,12,14,16,18,20,22 /mod_base = “2′-deoxy-2′-fluoro corresponding nucleoside”; …)”, which “Serum AAT levels measured six weeks after each treatment” value (2.0 mg/kg MLP delivery polymer + 4.0 AAT RNAi agent, five doses at six week intervals) is on record?
Answer: The value was “rebounded less with each additional treatment”.

Question: And the “Serum AAT reduced” value (2.0 mg/kg MLP delivery polymer + 4.0 AAT RNAi agent, six week intervals, following the fourth treatment)?
Answer: The value was 85%.

Question: And the “Serum AAT reduced” value (2.0 mg/kg MLP delivery polymer + 4.0 AAT RNAi agent, following the first treatment)?
Answer: The value was 80%.

Question: And the “knockdown of AAT” value (all dose combinations with MLP delivery polymer)?
Answer: The value was “Significant knockdown”.

Question: And the “Percent AAT Knockdown in NHPs” value (co-injection MLP 2.0 mg/kg + SEQ ID 5/6 4.0 mg/kg on day 1, Day 2)?
Answer: The value was 11%.

Question: What about the “Percent AAT Knockdown in NHPs” value (co-injection MLP 2.0 mg/kg + SEQ ID 5/6 4.0 mg/kg on day 1, Day 3) of the same substance?
Answer: Its value is 27%.

Question: And the “Percent AAT Knockdown in NHPs” value (co-injection MLP 2.0 mg/kg + SEQ ID 5/6 4.0 mg/kg on day 1, Day 8)?
Answer: The value was 63%.

Question: What about the “Percent AAT Knockdown in NHPs” value (co-injection MLP 2.0 mg/kg + SEQ ID 5/6 4.0 mg/kg on day 1, Day 11) of the same substance?
Answer: The value was 73%.

Question: And the “Percent AAT Knockdown in NHPs” value (co-injection MLP 2.0 mg/kg + SEQ ID 5/6 4.0 mg/kg on day 1, Day 15)?
Answer: Its value is 81%.

Question: And the “Percent AAT Knockdown in NHPs” value (co-injection MLP 2.0 mg/kg + SEQ ID 5/6 4.0 mg/kg on day 1, Day 22)?
Answer: The value was 85%.

Question: And the “Percent AAT Knockdown in NHPs” value (co-injection MLP 2.0 mg/kg + SEQ ID 5/6 4.0 mg/kg on day 1, Day 29)?
Answer: The value was 80%.

Question: What about the “Percent AAT Knockdown in NHPs” value (co-injection MLP 2.0 mg/kg + SEQ ID 5/6 4.0 mg/kg on day 1, Pretest) of the same substance?
Answer: Its value is 0%.

Question: And the “Percent AAT Knockdown in NHPs” value (co-injection MLP 3.0 mg/kg + SEQ ID 5/6 1.5 mg/kg on day 1, Day 2)?
Answer: Its value is 16%.

Question: What about the “Percent AAT Knockdown in NHPs” value (co-injection MLP 3.0 mg/kg + SEQ ID 5/6 1.5 mg/kg on day 1, Day 3) of the same substance?
Answer: Its value is 30%.

Question: What about the “Percent AAT Knockdown in NHPs” value (co-injection MLP 3.0 mg/kg + SEQ ID 5/6 1.5 mg/kg on day 1, Day 8) of the same substance?
Answer: The value was 59%.

Question: What about the “Percent AAT Knockdown in NHPs” value (co-injection MLP 3.0 mg/kg + SEQ ID 5/6 1.5 mg/kg on day 1, Day 11) of the same substance?
Answer: The value was 70%.

Question: And the “Percent AAT Knockdown in NHPs” value (co-injection MLP 3.0 mg/kg + SEQ ID 5/6 1.5 mg/kg on day 1, Day 15)?
Answer: Its value is 74%.

Question: And the “Percent AAT Knockdown in NHPs” value (co-injection MLP 3.0 mg/kg + SEQ ID 5/6 1.5 mg/kg on day 1, Day 22)?
Answer: Its value is 76%.

Question: And the “Percent AAT Knockdown in NHPs” value (co-injection MLP 3.0 mg/kg + SEQ ID 5/6 1.5 mg/kg on day 1, Day 29)?
Answer: Its value is 74%.

Question: And the “Percent AAT Knockdown in NHPs” value (co-injection MLP 3.0 mg/kg + SEQ ID 5/6 1.5 mg/kg on day 1, Day 36)?
Answer: The value was 70%.

Question: What about the “Percent AAT Knockdown in NHPs” value (co-injection MLP 3.0 mg/kg + SEQ ID 5/6 1.5 mg/kg on day 1, Day 43) of the same substance?
Answer: The value was 63%.

Question: What about the “Percent AAT Knockdown in NHPs” value (co-injection MLP 3.0 mg/kg + SEQ ID 5/6 1.5 mg/kg on day 1, Day 50) of the same substance?
Answer: Its value is 51%.

Question: What about the “Percent AAT Knockdown in NHPs” value (co-injection MLP 3.0 mg/kg + SEQ ID 5/6 1.5 mg/kg on day 1, Pretest) of the same substance?
Answer: The value was 0%.

Question: What about the “Percent AAT Knockdown in NHPs” value (co-injection MLP 3.0 mg/kg + SEQ ID 5/6 3.0 mg/kg on day 1, Day 2) of the same substance?
Answer: Its value is 15%.

Question: What about the “Percent AAT Knockdown in NHPs” value (co-injection MLP 3.0 mg/kg + SEQ ID 5/6 3.0 mg/kg on day 1, Day 3) of the same substance?
Answer: The value was 29%.

Question: And the “Percent AAT Knockdown in NHPs” value (co-injection MLP 3.0 mg/kg + SEQ ID 5/6 3.0 mg/kg on day 1, Day 8)?
Answer: The value was 63%.

Question: And the “Percent AAT Knockdown in NHPs” value (co-injection MLP 3.0 mg/kg + SEQ ID 5/6 3.0 mg/kg on day 1, Day 11)?
Answer: The value was 74%.

Question: What about the “Percent AAT Knockdown in NHPs” value (co-injection MLP 3.0 mg/kg + SEQ ID 5/6 3.0 mg/kg on day 1, Day 15) of the same substance?
Answer: The value was 82%.

Question: What about the “Percent AAT Knockdown in NHPs” value (co-injection MLP 3.0 mg/kg + SEQ ID 5/6 3.0 mg/kg on day 1, Day 22) of the same substance?
Answer: Its value is 88%.

Question: What about the “Percent AAT Knockdown in NHPs” value (co-injection MLP 3.0 mg/kg + SEQ ID 5/6 3.0 mg/kg on day 1, Day 29) of the same substance?
Answer: The value was 85%.

Question: And the “Percent AAT Knockdown in NHPs” value (co-injection MLP 3.0 mg/kg + SEQ ID 5/6 3.0 mg/kg on day 1, Pretest)?
Answer: Its value is 0%.

Question: And the “Percent AAT Knockdown in NHPs” value (co-injection MLP 3.0 mg/kg + SEQ ID 5/6 6.0 mg/kg on day 1, Day 2)?
Answer: Its value is 10%.

Question: And the “Percent AAT Knockdown in NHPs” value (co-injection MLP 3.0 mg/kg + SEQ ID 5/6 6.0 mg/kg on day 1, Day 3)?
Answer: The value was 25%.

Question: And the “Percent AAT Knockdown in NHPs” value (co-injection MLP 3.0 mg/kg + SEQ ID 5/6 6.0 mg/kg on day 1, Day 8)?
Answer: Its value is 63%.

Question: And the “Percent AAT Knockdown in NHPs” value (co-injection MLP 3.0 mg/kg + SEQ ID 5/6 6.0 mg/kg on day 1, Day 11)?
Answer: Its value is 74%.

Question: And the “Percent AAT Knockdown in NHPs” value (co-injection MLP 3.0 mg/kg + SEQ ID 5/6 6.0 mg/kg on day 1, Day 15)?
Answer: The value was 82%.

Question: And the “Percent AAT Knockdown in NHPs” value (co-injection MLP 3.0 mg/kg + SEQ ID 5/6 6.0 mg/kg on day 1, Pretest)?
Answer: The value was 0%.

Question: And the “Percent AAT Knockdown in NHPs” value (co-injection MLP 6.0 mg/kg + SEQ ID 5/6 12.0 mg/kg on day 1, Day 2)?
Answer: The value was 18%.

Question: And the “Percent AAT Knockdown in NHPs” value (co-injection MLP 6.0 mg/kg + SEQ ID 5/6 12.0 mg/kg on day 1, Day 3)?
Answer: The value was 30%.

Question: What about the “Percent AAT Knockdown in NHPs” value (co-injection MLP 6.0 mg/kg + SEQ ID 5/6 12.0 mg/kg on day 1, Day 8) of the same substance?
Answer: The value was 61%.

Question: What about the “Percent AAT Knockdown in NHPs” value (co-injection MLP 6.0 mg/kg + SEQ ID 5/6 12.0 mg/kg on day 1, Pretest) of the same substance?
Answer: Its value is 0%.

Question: What about the “Percent AAT Knockdown in NHPs” value (co-injection MLP 12.0 mg/kg + SEQ ID 5/6 6.0 mg/kg on day 1, Day 2) of the same substance?
Answer: The value was 3%.

Question: What about the “Percent AAT Knockdown in NHPs” value (co-injection MLP 12.0 mg/kg + SEQ ID 5/6 6.0 mg/kg on day 1, Day 3) of the same substance?
Answer: The value was 19%.

Question: What about the “Percent AAT Knockdown in NHPs” value (co-injection MLP 12.0 mg/kg + SEQ ID 5/6 6.0 mg/kg on day 1, Day 8) of the same substance?
Answer: Its value is 60%.

Question: What about the “Percent AAT Knockdown in NHPs” value (co-injection MLP 12.0 mg/kg + SEQ ID 5/6 6.0 mg/kg on day 1, Day 11) of the same substance?
Answer: Its value is 84%.

Question: And the “Percent AAT Knockdown in NHPs” value (co-injection MLP 12.0 mg/kg + SEQ ID 5/6 6.0 mg/kg on day 1, Day 15)?
Answer: The value was 88%.

Question: And the “Percent AAT Knockdown in NHPs” value (co-injection MLP 12.0 mg/kg + SEQ ID 5/6 6.0 mg/kg on day 1, Day 26)?
Answer: Its value is 91%.

Question: And the “Percent AAT Knockdown in NHPs” value (co-injection MLP 12.0 mg/kg + SEQ ID 5/6 6.0 mg/kg on day 1, Day 33)?
Answer: The value was 86%.

Question: And the “Percent AAT Knockdown in NHPs” value (co-injection MLP 12.0 mg/kg + SEQ ID 5/6 6.0 mg/kg on day 1, Day 47)?
Answer: The value was 76%.

Question: What about the “Percent AAT Knockdown in NHPs” value (co-injection MLP 12.0 mg/kg + SEQ ID 5/6 6.0 mg/kg on day 1, Pretest) of the same substance?
Answer: The value was 0%.

Question: What about the “serum AAT levels reduced” value (repeat dosing at six week intervals, 3 mg/kg MLP delivery polymer + 6 mg/kg, from two to thirty weeks after the first treatment) of the same substance?
Answer: The value was 80-90%.
